Results taken from ChEMBL document CHEMBL6115002, “Discovery of novel sitolactone derivative leading to PANoptosis and differentiation of acute myeloid leukemia cells” (Eur J Med Chem, 2025).
Calls of active or inactive are those of the source. The rule behind the calls is not given here.

Key:
Kasumi 1 [1] = assay: Induction of cell cycle arrest in human Kasumi 1 cells assessed as increase in accumulation of cells at G2 phase at 1 uM incubated for 24 hrs by propidium iodide staining based flow cytometric analysis (reference value: 9.82%); format: functional
Kasumi 1 [2] = assay: Disruption of pyruvate metabolic pathway in human Kasumi 1 cells by KEGG enrichment analysis; format: functional, cell-based
Kasumi 1 [3] = assay: Induction of cell cycle arrest in human Kasumi 1 cells assessed as increase in P53 level at 0.15 to 1.2 uM incubated for 24 hrs by Western blotting analysis; format: functional, cell-based; settings: dose 0.15-1.2 µM
Kasumi 1 [4] = assay: Induction of cell cycle arrest in human Kasumi 1 cells assessed as increase in accumulation of cells at G1 phase at 0.5 uM incubated for 24 hrs by propidium iodide staining based flow cytometric analysis (reference value: 50.41%); format: functional
WEHI-3 [5] = assay: Induction of cell differentiation in mouse WEHI-3 cells assessed as increase in CD11B expression by Western blotting analysis; format: functional, cell-based; settings: dose 0.125-1 µM
HCT-116 [6] = assay: Antiproliferative activity against human HCT-116 cells assessed as inhibition of cell proliferation incubated for 72 hrs by CCK-8 assay; format: functional, cell-based; settings: HCT-116, 72 h
BXPC-3 = assay: Antiproliferative activity against human BXPC-3 cells assessed as inhibition of cell proliferation incubated for 72 hrs by CCK-8 assay; format: functional, cell-based; settings: BXPC-3, 72 h
Kasumi 1 [7] = assay: Induction of cell cycle arrest in human Kasumi 1 cells assessed as increase in accumulation of cells at S phase at 0.5 uM incubated for 24 hrs by propidium iodide staining based flow cytometric analysis (reference value: 39.77%); format: functional
Kasumi 1 [8] = assay: Disruption of carbon metabolic pathway in human Kasumi 1 cells by KEGG enrichment analysis; format: functional, cell-based
Kasumi 1 [9] = assay: Induction of apoptosis in human Kasumi 1 cells assessed as increase in cleaved PARP-1 level incubated for 72 hrs by Western blotting analysis; format: functional, cell-based; settings: dose 0.625-5 µM
HL-60 = assay: Antiproliferative activity against human HL-60 cells assessed as inhibition of cell proliferation incubated for 72 hrs by CCK-8 assay; format: functional, cell-based; settings: HL-60, 72 h
[10] = (§1) Toxicity in Balb/c mouse implanted with mouse WEHI-3 cells assessed as change in body weight at 100 to 200 mg/kg, po administered (4aR,6aS,7S,9aS,9bS)-2-(((S)-2-(hydroxymethyl)pyrrolidin-1-yl)methyl)-6a-methyl7 ((triisopropylsilyl)oxy)decahydrocyclopenta[f]chromen-3(2H)-one as prodrug once daily and measured after 15 days; format: organism-based; settings: in vivo, 360 h, dose 100-200 mg/kg, time 15 day
Kasumi 1 [11] = assay: Disruption of citrate metabolic pathway in human Kasumi 1 cells by KEGG enrichment analysis; format: functional, cell-based
WEHI-3 [12] = assay: Antitumor activity against mouse WEHI-3 cells implanted in Balb/c mouse assessed as reduction in liver metastasis at 1 mg/kg, po administered daily for 15 days by H and E staining based analysis; format: functional, organism-based; settings: time 15.0 day
PANC-1 = assay: Antiproliferative activity against human PANC-1 cells assessed as inhibition of cell proliferation incubated for 72 hrs by CCK-8 assay; format: functional, cell-based; settings: PANC-1, 72 h
HCT-116 [13] = assay: Inhibition of tumor sphere formation in human HCT-116 cells at 1.25 uM incubated for 24 hrs; format: functional, cell-based
[14] = as §1, with “animal survival” for “change in body weight”; format: organism-based; settings: in vivo, 360 h, dose 100-200 mg/kg, time 15 day
NCI-H358 = assay: Antiproliferative activity against human NCI-H358 cells assessed as inhibition of cell proliferation incubated for 72 hrs by CCK-8 assay; format: functional, cell-based; settings: NCI-H358, 72 h
Kasumi 1 [15] = assay: Induction of cell cycle arrest in human Kasumi 1 cells assessed as increase in accumulation of cells at S phase at 1 uM incubated for 24 hrs by propidium iodide staining based flow cytometric analysis (reference value: 39.77%); format: functional
Calu-1 = assay: Antiproliferative activity against human Calu-1 cells assessed as inhibition of cell proliferation incubated for 72 hrs by CCK-8 assay; format: functional, cell-based; settings: Calu-1, 72 h
HT-29 = assay: Antiproliferative activity against human HT-29 cells assessed as inhibition of cell proliferation incubated for 72 hrs by CCK-8 assay; format: functional, cell-based; settings: HT-29, 72 h
[16] = Induction of cell cycle arrest in mouse WEHI-3 cells assessed as increase in accumulation of cells at S phase at 1 uM incubated for 24 hrs by propidium iodide staining based flow cytometric analysis (reference value: 51.22%); format: functional
Kasumi 1 [17] = assay: Inhibition of colony formation in human Kasumi 1 cells incubated for 15 days by crystal violet staining based analysis; format: functional, cell-based; settings: dose 0.5-1 µM, time 15.0 day
WEHI-3 [18] = assay: Antitumor activity against mouse WEHI-3 cells implanted in Balb/c mouse assessed as reduction in leukocyte number at 100 to 200 mg/kg, po administered (4aR,6aS,7S,9aS,9bS)-2-(((S)-2-(hydroxymethyl)pyrrolidin-1-yl)methyl)-6a-methyl7 ((triisopropylsilyl)oxy)decahydrocyclopenta[f]chromen-3(2H)-one as prodrug once daily and measured after 15 days by H and E staining based analysis; format: functional, organism-based; settings: dose 100-200 mg/kg, time 15.0 day
MV4-11 = assay: Antiproliferative activity against human MV4-11 cells assessed as inhibition cell proliferation incubated for 72 hrs by MTT assay; format: functional, cell-based; settings: MV4-11, 72 h
WEHI-3 [19] = assay: Induction of apoptosis in mouse WEHI-3 cells assessed as increase in cleaved PARP-1 level incubated for 72 hrs by Western blotting analysis; format: functional, cell-based; settings: dose 0.625-5 µM
RKO = assay: Antiproliferative activity against human RKO cells assessed as inhibition of cell proliferation incubated for 72 hrs by CCK-8 assay; format: functional, cell-based
Kasumi 1 [20] = assay: PANoptosis in human Kasumi 1 cells assessed as cell death at 0.6 uM incubated for 72 hrs by optical microscopic analysis; format: functional, cell-based
[21] = Antiproliferative activity against human SKNO-1 cells assessed as inhibition of cell proliferation incubated for 72 hrs by CCK-8 assay; format: functional, cell-based; settings: SKNO-1, 72 h
WEHI-3 [22] = assay: Induction of cell cycle arrest in mouse WEHI-3 cells assessed as increase in P53 level at 0.15 to 1.2 uM incubated for 24 hrs by Western blotting analysis; format: functional, cell-based; settings: dose 0.15-1.2 µM
Kasumi 1 [23] = assay: Induction of […] in human Kasumi 1 cells assessed as increase in p-RIPK3 level at 0.625 to 5 uM incubated for 72 hrs by Western blotting analysis; format: functional, cell-based; settings: dose 0.625-5 µM
MIA PaCa-2 = assay: Antiproliferative activity against human MIA PaCa-2 cells assessed as inhibition of cell proliferation incubated for 72 hrs by CCK-8 assay; format: functional, cell-based; settings: MIA PaCa-2, 72 h
Kasumi 1 [24] = assay: Induction of cell differentiation in human Kasumi 1 cells assessed as lobulated nuclei at 1 uM incubated for 24 hrs by giemsa-Wrights staining based analysis; format: functional
A549 = assay: Antiproliferative activity against human A549 cells assessed as inhibition of cell proliferation incubated for 72 hrs by CCK-8 assay; format: functional, cell-based; settings: A549, 72 h
[25] = Induction of cell cycle arrest in mouse WEHI-3 cells assessed as increase in accumulation of cells at S phase at 0.5 uM incubated for 24 hrs by propidium iodide staining based flow cytometric analysis (reference value: 51.22%); format: functional
[26] = Induction of cell cycle arrest in mouse WEHI-3 cells assessed as increase in accumulation of cells at G2 phase at 0.25 uM incubated for 24 hrs by propidium iodide staining based flow cytometric analysis (reference value: 1.85%); format: functional

Structure (SMILES): C=C1C[C@@H]2[C@@H](CC[C@]3(C)[C@@H](O[Si](C(C)C)(C(C)C)C(C)C)CC[C@@H]23)OC1=O
- Activity (Kasumi 1 [1]): 18.95%
- Activity (Kasumi 1 [2]): Active
- Activity (Kasumi 1 [3]): Active
- Activity (Kasumi 1 [4]): 53.53%
- Activity (WEHI-3 [5]): Dose-dependent-effect
- IC50 (HCT-116 [6]): 1930 nM
- IC50 (BXPC-3): > 10000 nM
- Activity (Kasumi 1 [7]): 31.64%
- Activity (Kasumi 1 [8]): Active
- Activity (Kasumi 1 [9]): Dose-dependent-effect
- IC50 (HL-60): 900 nM
- Activity [10]: Non-toxic
- Activity (Kasumi 1 [11]): Active
- Activity (WEHI-3 [12]): Active
- IC50 (PANC-1): 1310 nM
- inhibition (HCT-116 [13]): Active
- Activity [14]: Non-toxic
- IC50 (NCI-H358): 1780 nM
- Activity (Kasumi 1 [15]): 22.53%
- IC50 (Calu-1): 3600 nM
- IC50 (HT-29): 1740 nM
- Activity [16]: 32.07%
- inhibition (Kasumi 1 [17]): Dose-dependent-effect
- Activity (WEHI-3 [18]): Active
- IC50 (MV4-11): 1750 nM
- Activity (WEHI-3 [19]): Dose-dependent-effect
- IC50 (RKO): 2070 nM
- Activity (Kasumi 1 [20]): Active
- IC50 [21]: 1240 nM
- Activity (WEHI-3 [22]): Active
- Activity (Kasumi 1 [23]): Active
- IC50 (MIA PaCa-2): 1710 nM
- Activity (Kasumi 1 [24]): Active
- IC50 (A549): 5240 nM
- Activity [25]: 43.52%
- Activity [26]: 1.76%
